According to PubChem BioAssay (NCI):
“And” between values parts separate entries of the source, which are not always exact repeats. Equal entries are not always repeated.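 In this assay, cells in 96-well plates receive the compound at five concentrations for 48 hours. Endpoints are linearly interpolated between the surrounding concentrations. At the GI50, growth is halved. The concentration for full growth arrest is given as TGI.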

Tests used:
Assay in all cases: DTP human tumour cell line panel, 48 h
ACHN renal = test system: ACHN renal
CCRF-CEM leukemia = test system: CCRF-CEM leukemia
EKVX NSCLC = test system: EKVX NSCLC
HCT-116 colon = test system: HCT-116 colon
NCI-H522 lung = test system: NCI-H522 lung
SK-MEL-28 melanoma = test system: SK-MEL-28 melanoma
SR leukemia = test system: SR leukemia
UACC-62 melanoma = test system: UACC-62 melanoma
A498 renal = test system: A498 renal
PC-3 prostate = test system: PC-3 prostate

Row | SMILES | GI50 (ACHN renal) [µM] | TGI (ACHN renal) | TGI (CCRF-CEM leukemia) | TGI (EKVX NSCLC) [µM] | TGI (HCT-116 colon) | TGI (NCI-H522 lung) [µM] | TGI (SK-MEL-28 melanoma) [µM] | TGI (SR leukemia) | TGI (UACC-62 melanoma) | TGI (A498 renal) [µM] | GI50 (A498 renal) [µM] | GI50 (CCRF-CEM leukemia) [µM] | GI50 (EKVX NSCLC) [µM] | GI50 (HCT-116 colon) [µM] | GI50 (NCI-H522 lung) [µM] | GI50 (PC-3 prostate) [µM] | TGI (PC-3 prostate) [µM] | GI50 (SK-MEL-28 melanoma) [µM] | GI50 (UACC-62 melanoma) [µM] | GI50 (SR leukemia) [µM]
1 | COc1cc(C(=O)N[C@H]2CCc3cc(OC)c(OC)c(OC)c3-c3ccc(SC)c(=O)cc32)cc(OC)c1OC | 0.0804 | 25 µM and > 100 µM | 25 µM and > 100 µM | 25 | 3.02 µM and 17 µM | 0.00974 | > 100 | 25 µM and > 100 µM | 25 µM and > 100 µM | – | – | – | – | – | – | – | – | – | – | –
2 | CC1(C)COC2C(N(Cc3ccccc3)Cc3ccccc3)C(=O)N21 (stereo unspecified) | – | > 100 µM | > 100 µM | > 100 | > 100 µM | 45.6 | > 100 | 54.7 µM | 61 µM | > 100 | – | – | – | – | – | – | – | – | – | –
3 | O=C(NN1C(=O)CSC1c1cccc(Cl)c1)C(O)c1ccccc1 (stereo unspecified) | 67.4 | > 100 µM | > 100 µM | > 100 | > 100 µM | > 100 | > 100 | – | > 100 µM | > 100 | > 100 | > 100 | 64.5 | 83.8 | 67.9 | 60.6 | > 100 | > 100 | 23.1 | –
4 | CC(=O)/C=C/c1ccc(Nc2c3ccccc3nc3occ(Cl)c23)cc1 | 3.32 | 12.5 µM | 19.7 µM | 78.2 | 17.6 µM | 16.1 | > 100 | – | 7.03 µM | – | – | 2.96 | 27.2 | 4.83 | 3.43 | 2.63 | 18.8 | 15.1 | 1.66 | –
5 | CC(/C=C/C(O)=C1/C(=O)CNC1=O)=C\[C@@H](C)[C@H]1O[C@@]2(C)O[C@H](C(=O)[C@@H]3O[C@@]32C)[C@@H]1C | – | 41.9 µM | > 100 µM | 39.2 | 39 µM | – | 38.7 | – | 33.3 µM | 29.1 | – | – | – | – | – | – | 31.8 | – | – | –
6 | CCOC(=O)C1Cc2ccc3c4c(ccc(c24)C1)CC(C(=O)OCC)C3 | – | > 100 µM | > 100 µM | > 100 | > 100 µM | > 100 | > 100 | > 100 µM | > 100 µM | > 100 | – | – | – | – | – | – | – | – | – | –
7 | COC(=O)c1cc(=O)nc2cc3cccccc3n12 | – | > 100 µM | > 100 µM | > 100 | > 100 µM | > 100 | > 100 | > 100 µM | > 100 µM | > 100 | – | – | – | – | – | – | – | – | – | –
8 | CC1=Nc2ccccc2SC(c2c(Cl)cccc2Cl)C1 (stereo unspecified) | – | 3.19 µM | 2.26 µM | 3.82 | 0.616 µM | 2.23 | 2.69 | – | 2.52 µM | 3.74 | – | – | – | – | – | – | – | – | – | –
9 | C=C(CN1CCc2c([nH]c3ccccc23)C1)c1ccc(C(=O)Nc2ccccc2N)cc1 | 1.74 | 10.4 µM | 46.3 µM | 13.5 | 32.9 µM | 11.5 | 16.1 | 50 µM | 7.43 µM | – | – | 0.0581 | 2.14 | 2.19 | 4.13 | 1.41 | 29.9 | 2.25 | 1.59 | 0.622
10 | CC1CC2(S(=O)(=O)c3ccccc3)ON1CC2S(=O)(=O)c1ccccc1 (stereo unspecified) | – | > 100 µM | > 100 µM | > 100 | > 100 µM | > 100 | > 100 | > 100 µM | > 100 µM | – | – | – | – | – | – | – | – | – | – | –
11 | COC(=O)C(=O)C(CC(=O)Nc1ccc(C)cc1)C(=O)OC (stereo unspecified) | – | > 100 µM | > 100 µM | > 100 | > 100 µM | > 100 | > 100 | > 100 µM | > 100 µM | – | – | – | – | – | – | – | – | – | – | –
12 | COc1ccc(C2=NC(=O)NC2c2ccc(OC)cc2)cc1 (stereo unspecified) | 21.9 | > 100 µM | > 100 µM | 64.6 | 27.7 µM | 60.9 | > 100 | 6.91 µM | 32.7 µM | 29.1 | 4.49 | 38.9 | 13 | 5.9 | 5.02 | – | – | 14.9 | 4.15 | 1.63
13 | CN/N=C(/c1nc2ccc([N+](=O)[O-])cc2[nH]c1=O)C(O)c1ccc(C(O)/C(=N\NC)c2nc3ccc([N+](=O)[O-])cc3[nH]c2=O)cc1 (stereo unspecified) | – | > 100 µM | > 100 µM | > 100 | > 100 µM | – | > 100 | – | > 100 µM | > 100 | – | – | – | – | – | – | – | – | – | –
14 | COc1ccc(-c2c(C#N)c(N)nc(N3CCOCC3)c2C#N)cc1 | 20.2 | > 100 µM | > 100 µM | > 100 | 65.2 µM | 43.6 | > 100 | – | 74.7 µM | 30.1 | 7.36 | 17.9 | 21.4 | 17.7 | 8.65 | 17.6 | 67.3 | 33.9 | 14.6 | –
15 | Nc1c(C(=O)c2cccc(C#CCN3CCCCC3)c2)cnn1-c1ccc(F)cc1 | > 19.2 | > 25 µM | > 25 µM | – | > 25 µM | > 25 | > 25 | > 25 µM | > 25 µM | > 25 | > 25 | > 25 | – | > 17.7 | > 18.9 | > 25 | > 25 | > 25 | > 25 | 14.2
16 | C#CCN(N=O)C(=O)ON1C(=O)CCC1=O | – | > 100 µM | > 100 µM | > 100 | > 100 µM | > 100 | > 100 | – | > 100 µM | > 100 | – | – | – | – | – | – | – | – | – | –
17 | COc1ccc(/C=C2\CCC(CCN(C)C)(C3=CCCC3)C2=O)cc1 (stereo unspecified) | – | 31.2 µM | 53 µM | 39.9 | 29.1 µM | 31.2 | 35.1 | 88.5 µM | 30.3 µM | 34.8 | – | – | – | – | – | – | – | – | – | –
18 | O=C1c2ccccc2C(=O)C12CCc1ccccc12 | – | > 100 µM | > 100 µM | > 100 | – | – | > 100 | – | > 100 µM | – | – | – | – | – | – | – | – | – | – | –
19 | O=C(CC1(O)C(=O)Nc2ccc(F)cc21)c1ccc(C(=O)NCC2CCC3(CC2)OOC2(CCCCC2)OO3)cc1 (stereo unspecified) | 2.89 | 10.7 µM | 4.3 µM | 3.98 | 32 µM | 2.71 | 32.4 | – | 29 µM | 29.4 | 13.3 | 1.81 | 1.87 | 8.66 | 1.21 | 3.86 | 19.3 | 13.9 | 12.2 | –
